Results taken from ChEMBL document CHEMBL1909046, “DrugMatrix in vitro pharmacology data”.

Experiments:
[1] = target: 5-hydroxytryptamine receptor 2B (Homo sapiens, UniProt P41595); type: cell membranes, CHO-K1, Membrane; conditions: for Ki: read-out: Ki; on all read-outs here: in other assays of this panel Not Active means under 50% inhibition at 10 µM
[2] = target: Sigma non-opioid intracellular receptor 1 (Homo sapiens, UniProt Q99720); assay: DRUGMATRIX: Sigma1 radioligand binding (ligand: [3H] Haloperidol); type: cell membranes, Jurkat, Membrane; conditions: Not Active = under 50% inhibition at 10 µM; for Ki: read-out: Ki
Sigma non-opioid intracellular receptor 1, sequence (Q99720 whole entry): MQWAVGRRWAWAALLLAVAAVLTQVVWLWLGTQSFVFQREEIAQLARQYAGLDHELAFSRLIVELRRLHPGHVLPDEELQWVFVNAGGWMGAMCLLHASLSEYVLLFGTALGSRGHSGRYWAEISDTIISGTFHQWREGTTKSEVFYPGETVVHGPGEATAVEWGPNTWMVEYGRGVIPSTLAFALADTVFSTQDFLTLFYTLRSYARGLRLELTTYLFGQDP

[3] = target: C-C chemokine receptor type 2 (Homo sapiens, UniProt P41597); type: cell membranes, CHO-K1, Membrane; conditions: cho-k1; further: in other assays of this panel Not Active means under 50% inhibition at 10 µM
C-C chemokine receptor type 2, sequence (P41597 whole entry): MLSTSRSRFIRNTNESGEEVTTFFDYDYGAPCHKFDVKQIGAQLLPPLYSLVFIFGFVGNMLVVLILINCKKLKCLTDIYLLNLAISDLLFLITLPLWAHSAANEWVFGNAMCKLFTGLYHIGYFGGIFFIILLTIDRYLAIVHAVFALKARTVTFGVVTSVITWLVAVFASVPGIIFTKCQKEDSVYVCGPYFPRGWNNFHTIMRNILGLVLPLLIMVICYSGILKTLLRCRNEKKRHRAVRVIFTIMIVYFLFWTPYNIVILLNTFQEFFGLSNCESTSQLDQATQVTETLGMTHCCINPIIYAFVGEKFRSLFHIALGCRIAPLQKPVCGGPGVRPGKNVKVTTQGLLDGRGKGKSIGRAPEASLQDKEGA

[4] = target: T1, 3-hydroxy-3-methylglutaryl-coenzyme A reductase (Homo sapiens, UniProt P04035); set-up: species or system Escherichia coli;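 further: enzyme inhibition assay of HMG-CoA reductase using radiolabeled [14C]HMG-CoA as substrate; in other assays of this panel Not Active means under 50% inhibition at 10 µM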
T1 sequence (P04035 whole entry): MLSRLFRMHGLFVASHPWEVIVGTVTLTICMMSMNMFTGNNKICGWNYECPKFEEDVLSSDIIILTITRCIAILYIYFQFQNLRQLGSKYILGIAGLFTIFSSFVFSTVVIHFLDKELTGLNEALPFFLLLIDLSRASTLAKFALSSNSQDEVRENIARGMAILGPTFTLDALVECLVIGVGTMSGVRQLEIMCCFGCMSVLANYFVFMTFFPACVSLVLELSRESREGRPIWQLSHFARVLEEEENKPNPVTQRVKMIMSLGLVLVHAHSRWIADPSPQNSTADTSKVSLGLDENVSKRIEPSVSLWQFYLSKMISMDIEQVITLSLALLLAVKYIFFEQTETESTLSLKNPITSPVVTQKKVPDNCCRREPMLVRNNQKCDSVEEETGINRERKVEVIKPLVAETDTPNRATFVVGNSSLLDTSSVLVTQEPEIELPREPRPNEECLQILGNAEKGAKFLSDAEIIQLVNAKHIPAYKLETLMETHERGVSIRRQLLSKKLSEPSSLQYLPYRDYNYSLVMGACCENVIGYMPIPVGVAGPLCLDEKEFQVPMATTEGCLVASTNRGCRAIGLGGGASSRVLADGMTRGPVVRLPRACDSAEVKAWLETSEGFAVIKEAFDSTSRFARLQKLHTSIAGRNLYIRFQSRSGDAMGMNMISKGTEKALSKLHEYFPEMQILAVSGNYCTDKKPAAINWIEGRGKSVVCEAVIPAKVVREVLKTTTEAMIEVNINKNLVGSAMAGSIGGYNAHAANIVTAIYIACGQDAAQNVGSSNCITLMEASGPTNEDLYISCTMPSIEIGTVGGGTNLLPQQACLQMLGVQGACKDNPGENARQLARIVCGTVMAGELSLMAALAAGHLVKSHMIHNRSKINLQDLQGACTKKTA

[5] = DRUGMATRIX: Imidazoline I2, Central radioligand binding (ligand: [3H] Idazoxan); type: cell membranes, Rattus norvegicus, Wistar, Cerebral cortex, Membrane; conditions: Not Active = under 50% inhibition at 10 µM
[6] = target: T2, Neuropeptide Y receptor type 2 (Homo sapiens, UniProt P49146); type: cell membranes, Membrane; conditions: kan-ts; further: in other assays of this panel Not Active means under 50% inhibition at 10 µM
T2 sequence (P49146 whole entry): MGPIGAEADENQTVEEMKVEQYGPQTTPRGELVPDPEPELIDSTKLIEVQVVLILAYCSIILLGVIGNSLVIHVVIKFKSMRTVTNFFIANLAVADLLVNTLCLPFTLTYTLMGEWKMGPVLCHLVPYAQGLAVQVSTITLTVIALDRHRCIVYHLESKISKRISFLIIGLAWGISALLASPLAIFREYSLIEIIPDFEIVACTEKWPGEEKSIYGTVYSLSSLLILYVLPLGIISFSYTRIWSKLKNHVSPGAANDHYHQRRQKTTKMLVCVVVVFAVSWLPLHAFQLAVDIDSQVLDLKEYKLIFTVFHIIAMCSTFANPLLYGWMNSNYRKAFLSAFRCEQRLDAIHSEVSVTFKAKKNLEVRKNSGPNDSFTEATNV

[7] = DRUGMATRIX: Phosphodiesterase PDE4 enzyme inhibition (substrate: [3H]cAMP + cAMP); conditions: u-937; Not Active = under 50% inhibition at 10 µM
[8] = target: Platelet-activating factor receptor (Homo sapiens, UniProt P25105); assay: biochemical; type: tissue-based; conditions: platelet; further: in other assays of this panel Not Active means under 50% inhibition at 10 µM
Platelet-activating factor receptor, sequence (P25105 whole entry): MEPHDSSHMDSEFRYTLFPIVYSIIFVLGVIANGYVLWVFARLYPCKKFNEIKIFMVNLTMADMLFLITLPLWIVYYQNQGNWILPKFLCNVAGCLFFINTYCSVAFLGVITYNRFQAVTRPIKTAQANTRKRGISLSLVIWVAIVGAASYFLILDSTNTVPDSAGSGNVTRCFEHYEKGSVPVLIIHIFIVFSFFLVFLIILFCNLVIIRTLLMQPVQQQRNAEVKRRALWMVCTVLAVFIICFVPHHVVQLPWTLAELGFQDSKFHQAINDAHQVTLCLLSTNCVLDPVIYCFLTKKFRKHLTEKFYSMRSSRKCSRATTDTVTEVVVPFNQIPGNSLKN

Progesterone receptor = target: T3, Progesterone receptor (Bos taurus, UniProt Q690N0); assay: DRUGMATRIX: Progesterone radioligand binding (ligand: [3H] R-5020); type: tissue-based, Uterus; conditions: Not Active = under 50% inhibition at 10 µM
T3 sequence (Q690N0 whole entry): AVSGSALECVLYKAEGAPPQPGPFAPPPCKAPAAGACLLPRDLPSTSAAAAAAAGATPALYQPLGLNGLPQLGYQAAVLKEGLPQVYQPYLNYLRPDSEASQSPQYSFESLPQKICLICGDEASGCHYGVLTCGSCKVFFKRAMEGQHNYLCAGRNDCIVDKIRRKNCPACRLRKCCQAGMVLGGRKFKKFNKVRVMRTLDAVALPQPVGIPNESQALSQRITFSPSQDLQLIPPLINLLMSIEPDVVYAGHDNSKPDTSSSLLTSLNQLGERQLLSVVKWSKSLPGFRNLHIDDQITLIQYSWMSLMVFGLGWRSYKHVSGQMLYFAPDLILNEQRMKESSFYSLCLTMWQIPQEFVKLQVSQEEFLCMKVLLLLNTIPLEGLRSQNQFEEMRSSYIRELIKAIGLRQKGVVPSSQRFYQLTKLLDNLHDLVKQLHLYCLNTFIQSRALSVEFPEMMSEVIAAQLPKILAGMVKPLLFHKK

[9] = target: Protein phosphatase 3 catalytic subunit alpha (Homo sapiens, UniProt Q08209); set-up: species or system Escherichia coli
Acetylcholinesterase = Acetylcholinesterase (Homo sapiens, UniProt P22303); assay: DRUGMATRIX: Acetylcholinesterase enzyme inhibition (substrate: acetylthiocholine); type: cell-based, HEK293; conditions: hek293; Not Active = under 50% inhibition at 10 µM
Acetylcholinesterase, sequence (P22303 whole entry): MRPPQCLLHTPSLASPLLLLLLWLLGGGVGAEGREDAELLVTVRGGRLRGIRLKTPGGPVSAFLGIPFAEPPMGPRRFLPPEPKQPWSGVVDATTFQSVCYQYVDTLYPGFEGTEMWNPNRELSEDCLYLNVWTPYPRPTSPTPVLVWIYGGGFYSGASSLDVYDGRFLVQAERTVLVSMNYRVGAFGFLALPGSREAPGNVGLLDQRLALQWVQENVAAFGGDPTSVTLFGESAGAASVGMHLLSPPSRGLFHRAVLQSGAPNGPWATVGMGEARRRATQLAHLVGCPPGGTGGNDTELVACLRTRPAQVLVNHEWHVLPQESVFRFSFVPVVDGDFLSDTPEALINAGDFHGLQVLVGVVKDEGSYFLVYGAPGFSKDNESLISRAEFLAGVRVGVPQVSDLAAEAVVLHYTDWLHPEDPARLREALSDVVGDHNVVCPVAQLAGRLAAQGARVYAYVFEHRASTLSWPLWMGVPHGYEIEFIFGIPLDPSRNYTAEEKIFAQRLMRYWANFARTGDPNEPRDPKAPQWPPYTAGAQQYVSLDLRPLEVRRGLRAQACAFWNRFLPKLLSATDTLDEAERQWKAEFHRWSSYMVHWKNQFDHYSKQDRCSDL

Adenosine receptor A2a = Adenosine receptor A2a (Homo sapiens, UniProt P29274); assay: DRUGMATRIX: Adenosine A2A radioligand binding (ligand: […]); type: cell membranes, HEK293, Membrane; conditions: hek293; Not Active = under 50% inhibition at 10 µM
Adenosine receptor A2a, sequence (P29274 whole entry): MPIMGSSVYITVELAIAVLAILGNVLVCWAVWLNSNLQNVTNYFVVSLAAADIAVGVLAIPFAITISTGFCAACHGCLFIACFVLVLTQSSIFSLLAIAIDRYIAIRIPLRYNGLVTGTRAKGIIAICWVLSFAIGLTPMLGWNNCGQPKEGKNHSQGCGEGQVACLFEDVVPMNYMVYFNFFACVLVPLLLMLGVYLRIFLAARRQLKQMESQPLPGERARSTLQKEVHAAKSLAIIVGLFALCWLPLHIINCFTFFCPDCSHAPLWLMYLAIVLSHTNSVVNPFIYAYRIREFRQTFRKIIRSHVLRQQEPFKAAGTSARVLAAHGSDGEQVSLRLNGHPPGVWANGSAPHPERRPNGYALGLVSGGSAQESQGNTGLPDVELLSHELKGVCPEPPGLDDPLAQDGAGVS

5-hydroxytryptamine receptor 2B, sequence (P41595 whole entry): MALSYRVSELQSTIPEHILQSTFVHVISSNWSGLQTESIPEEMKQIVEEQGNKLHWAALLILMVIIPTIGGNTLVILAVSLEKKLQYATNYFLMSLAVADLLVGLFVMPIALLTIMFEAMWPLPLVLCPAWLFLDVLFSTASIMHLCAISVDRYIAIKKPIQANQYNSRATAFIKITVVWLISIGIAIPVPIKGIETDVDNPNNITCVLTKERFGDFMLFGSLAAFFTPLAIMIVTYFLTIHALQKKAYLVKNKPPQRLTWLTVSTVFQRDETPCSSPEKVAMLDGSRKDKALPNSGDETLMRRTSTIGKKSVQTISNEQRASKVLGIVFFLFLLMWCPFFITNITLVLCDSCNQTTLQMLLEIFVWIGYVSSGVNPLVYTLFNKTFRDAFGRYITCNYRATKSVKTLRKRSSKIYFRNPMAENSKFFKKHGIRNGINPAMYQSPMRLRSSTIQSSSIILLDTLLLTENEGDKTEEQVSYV

Structure (SMILES): O=C1CCc2cc(OCCCCc3nnnn3C3CCCCC3)ccc2N1 [CILOSTAZOL]
- IC50 ([1]; cho-k1): Not Active
- IC50 ([2]; jurkat): Not Active
- IC50 [3]: Not Active
- IC50 [4]: Not Active
- IC50 [5]: Not Active
- Ki [5]: Not Active
- IC50 [6]: Not Active
- IC50 [7]: Not Active
- Ki [7]: Not Active
- IC50 [8]: Not Active
- IC50 (Progesterone receptor): Not Active
- IC50 [9]: Not Active
- IC50 (Acetylcholinesterase): Not Active
- IC50 (Adenosine receptor A2a): Not Active

Structure (SMILES): O=C(O)c1cn(C2CC2)c2cc(N3CCNCC3)c(F)cc2c1=O [CIPROFLOXACIN]
- IC50 ([1]; cho-k1): Not Active
- IC50 ([2]; jurkat): Not Active
- IC50 [3]: Not Active
- IC50 [4]: Not Active
- IC50 [5]: Not Active
- Ki [5]: Not Active
- IC50 [6]: Not Active
- IC50 [7]: Not Active
- Ki [7]: Not Active
- IC50 [8]: Not Active
- IC50 (Progesterone receptor): Not Active
- IC50 [9]: Not Active
- IC50 (Acetylcholinesterase): Not Active
- IC50 (Adenosine receptor A2a): Not Active

Structure (SMILES): CN(C)CCCC1(c2ccc(F)cc2)OCc2cc(C#N)ccc21 (centres undefined) [CITALOPRAM]
- IC50 ([1]; read-out: IC50): 1840 nM
- Ki [1]: 1170 nM
- IC50 ([2]; read-out: IC50): 398 nM
- Ki [2]: 167 nM
- IC50 [3]: Not Active
- IC50 [4]: Not Active
- IC50 [5]: Not Active
- Ki [5]: Not Active
- IC50 [6]: Not Active
- IC50 [7]: Not Active
- Ki [7]: Not Active
- IC50 [8]: Not Active
- IC50 (Progesterone receptor): Not Active
- IC50 [9]: Not Active
- IC50 (Acetylcholinesterase): Not Active
- IC50 (Adenosine receptor A2a): Not Active

Structure (SMILES): COC(=O)[C@H](c1ccccc1Cl)N1CCc2sccc2C1 [CLOPIDOGREL]
- IC50 ([1]; cho-k1): Not Active
- IC50 ([2]; jurkat): Not Active
- IC50 [3]: Not Active
- IC50 [4]: Not Active
- IC50 [5]: Not Active
- Ki [5]: Not Active
- IC50 [6]: Not Active
- IC50 [7]: Not Active
- Ki [7]: Not Active
- IC50 [8]: Not Active
- IC50 (Progesterone receptor): Not Active
- IC50 [9]: Not Active
- IC50 (Acetylcholinesterase): Not Active
- IC50 (Adenosine receptor A2a): Not Active

Structure (SMILES): C[C@]12CCC(=O)C=C1CC[C@@H]1[C@@H]2C(=O)C[C@@]2(C)[C@H]1CC[C@]2(O)C(=O)CO [CORTISONE]
- IC50 ([1]; cho-k1): Not Active
- IC50 ([2]; jurkat): Not Active
- IC50 [3]: Not Active
- IC50 [4]: Not Active
- IC50 [5]: Not Active
- Ki [5]: Not Active
- IC50 [6]: Not Active
- IC50 [7]: Not Active
- Ki [7]: Not Active
- IC50 [8]: Not Active
- IC50 (Progesterone receptor): Not Active
- IC50 [9]: Not Active
- IC50 (Acetylcholinesterase): Not Active
- IC50 (Adenosine receptor A2a): Not Active

Structure (SMILES): Cc1ccccc1N1CCN(CCc2nnc3n2CCCC3)CC1 [DAPIPRAZOLE]
- IC50 ([1]; read-out: IC50): 1060 nM
- Ki [1]: 672 nM
- IC50 ([2]; jurkat): Not Active
- IC50 [3]: Not Active
- IC50 [4]: Not Active
- IC50 [5]: Not Active
- Ki [5]: Not Active
- IC50 [6]: Not Active
- IC50 [7]: Not Active
- Ki [7]: Not Active
- IC50 [8]: Not Active
- IC50 (Progesterone receptor): Not Active
- IC50 [9]: Not Active
- IC50 (Acetylcholinesterase): Not Active
- IC50 (Adenosine receptor A2a): Not Active

Structure (SMILES): CC1=Nc2ccc(Cl)cc2S(=O)(=O)N1 [DIAZOXIDE]
- IC50 ([1]; cho-k1): Not Active
- IC50 ([2]; jurkat): Not Active
- IC50 [3]: Not Active
- IC50 [4]: Not Active
- IC50 [5]: Not Active
- Ki [5]: Not Active
- IC50 [6]: Not Active
- IC50 [7]: Not Active
- Ki [7]: Not Active
- IC50 [8]: Not Active
- IC50 (Progesterone receptor): Not Active
- IC50 [9]: Not Active
- IC50 (Acetylcholinesterase): Not Active
- IC50 (Adenosine receptor A2a): Not Active

Structure (SMILES): CC(=O)OCC(=O)[C@@]1(OC(C)=O)[C@@H](C)C[C@H]2[C@@H]3C[C@H](F)C4=CC(=O)C=C[C@]4(C)[C@@]3(F)[C@@H](O)C[C@@]21C [DIFLORASONE DIACETATE]
- IC50 ([1]; cho-k1): Not Active
- IC50 ([2]; jurkat): Not Active
- IC50 [3]: Not Active
- IC50 [4]: Not Active
- IC50 [5]: Not Active
- Ki [5]: Not Active
- IC50 [6]: Not Active
- IC50 [7]: Not Active
- Ki [7]: Not Active
- IC50 [8]: Not Active
- IC50 (Progesterone receptor; read-out: IC50): 116 nM
- Ki (Progesterone receptor; read-out: Ki): 15 nM
- IC50 [9]: Not Active
- IC50 (Acetylcholinesterase): Not Active
- IC50 (Adenosine receptor A2a): Not Active

Structure (SMILES): COc1ccc([C@@H]2Sc3ccccc3N(CCN(C)C)C(=O)[C@@H]2OC(C)=O)cc1 [DILTIAZEM]
- IC50 ([1]; cho-k1): Not Active
- IC50 ([2]; jurkat): Not Active
- IC50 [3]: Not Active
- IC50 [4]: Not Active
- IC50 [5]: Not Active
- Ki [5]: Not Active
- IC50 [6]: Not Active
- IC50 [7]: Not Active
- Ki [7]: Not Active
- IC50 [8]: Not Active
- IC50 (Progesterone receptor): Not Active
- IC50 [9]: Not Active
- IC50 (Acetylcholinesterase): Not Active
- IC50 (Adenosine receptor A2a): Not Active

Structure (SMILES): CCc1ccc(C(=O)C(C)CN2CCCCC2)cc1 (centres undefined) [EPERISONE]
- IC50 ([1]; cho-k1): Not Active
- IC50 ([2]; read-out: IC50): 4.05 nM
- Ki [2]: 1.7 nM
- IC50 [3]: Not Active
- IC50 [4]: Not Active
- IC50 [5]: Not Active
- Ki [5]: Not Active
- IC50 [6]: Not Active
- IC50 [7]: Not Active
- Ki [7]: Not Active
- IC50 [8]: Not Active
- IC50 (Progesterone receptor): Not Active
- IC50 [9]: Not Active
- IC50 (Acetylcholinesterase): Not Active
- IC50 (Adenosine receptor A2a): Not Active

Structure (SMILES): C=C1CC[C@H](O)C/C1=C/C=C1\CCC[C@]2(C)[C@@H]([C@H](C)/C=C/[C@H](C)C(C)C)CC[C@@H]12 [ERGOCALCIFEROL]
- IC50 ([1]; cho-k1): Not Active
- IC50 ([2]; jurkat): Not Active
- IC50 [3]: Not Active
- IC50 [4]: Not Active
- IC50 [5]: Not Active
- Ki [5]: Not Active
- IC50 [6]: Not Active
- IC50 [7]: Not Active
- Ki [7]: Not Active
- IC50 [8]: Not Active
- IC50 (Progesterone receptor): Not Active
- IC50 [9]: Not Active
- IC50 (Acetylcholinesterase): Not Active
- IC50 (Adenosine receptor A2a): Not Active
